In brackets after ≈: the same amount, converted by molar mass. Some results are limits rather than exact numbers.

Assay type in all cases: functional
Assay [1] relates to Mycobacterium tuberculosis. The assay can be described thus: Antibacterial activity against drug-resistant Mycobacterium tuberculosis isolate 1 after 7 days by resazurin microtiter assay. The note with it: isolate 1, 168 h.
The test system of assay [2] is Mycobacterium tuberculosis. Briefly: Antibacterial activity against drug-resistant Mycobacterium tuberculosis isolate 5 after 7 days by resazurin microtiter assay. The following applies: isolate 5, 168 h.
Assay [3] deals with Mycobacterium tuberculosis. Briefly: Antibacterial activity against drug-resistant Mycobacterium tuberculosis isolate 2 after 7 days by resazurin microtiter assay. The note with it: isolate 2, 168 h.
The subject of assay [4] is Mycobacterium tuberculosis. The assay can be described thus: Antibacterial activity against drug-resistant Mycobacterium tuberculosis isolate 3 after 7 days by resazurin microtiter assay. The note with it: isolate 3, 168 h.
For assay [5], the system named is Mycobacterium tuberculosis. The assay can be described thus: Antibacterial activity against drug-resistant Mycobacterium tuberculosis isolate 4 after 7 days by resazurin microtiter assay. The note with it: isolate 4, 168 h.

As for `NCC[C@H](O)C(=O)N[C@@H]1C[C@H](N)[C@@H](O[C@H]2O[C@H](CN)[C@@H](O)[C@H](O)[C@H]2O)[C@H](O)[C@H]1O[C@H]1O[C@H](CO)[C@@H](O)[C@H](N)[C@H]1O` [AMIKACIN], the MIC was determined as 0.4 µM (≈ 0.234 µg/mL) in assay [1]; 1.7 µM (≈ 0.996 µg/mL) in assay [2]; 1.6 µM (≈ 0.937 µg/mL) in assay [3]; 0.4 µM (≈ 0.234 µg/mL) in assay [4]; 0.7 µM (≈ 0.41 µg/mL) in assay [5].
In the case of `COc1c(N2C[C@@H]3CCCN[C@@H]3C2)c(F)cc2c(=O)c(C(=O)O)cn(C3CC3)c12` [MOXIFLOXACIN], the minimum inhibitory concentration (MIC) in assay [1] stood at 0.3 µM (≈ 0.12 µg/mL); in assay [2], 0.4 µM (≈ 0.161 µg/mL); in assay [3], 0.7 µM (≈ 0.281 µg/mL); in assay [4] it was 0.5 µM (≈ 0.201 µg/mL); in assay [5], 1.4 µM (≈ 0.562 µg/mL).
As to `CCCCNc1ccc2c(C(=O)OCC)c(C(C)C)oc2n1`, the MIC in assay [1], in assay [2], in assay [3], in assay [4] and in assay [5] was above 82.2 µM in each case.
In the case of `CC[C@@H](CO)NCCN[C@@H](CC)CO` [ETHAMBUTOL], the MIC in assay [1], in assay [2], in assay [3], in assay [4] and in assay [5] was above 122 µM each time.
Consider `CCOC(=O)c1c(C)oc2nc(N3CCCC3)ccc12`, for which the MIC in assay [1] is 18.1 µM (≈ 4.97 µg/mL); in assay [2], 16.6 µM (≈ 4.55 µg/mL); in assay [3] it was 20.2 µM (≈ 5.54 µg/mL); in assay [4], 9.3 µM (≈ 2.55 µg/mL); in assay [5] it was 15.8 µM (≈ 4.33 µg/mL).
In the same order, the values of `N[C@@H]1CONC1=O` [CYCLOSERINE] are 242 µM (≈ 24.7 µg/mL), 196 µM (≈ 20.1 µg/mL), 121 µM (≈ 12.3 µg/mL), above 245 µM and 167 µM (≈ 17 µg/mL).
For `NNC(=O)c1ccncc1` [ISONIAZID], the MIC in assay [1], in assay [2], in assay [3], in assay [4] and in assay [5] was above 182 µM each time.
Turning to `CO[C@H]1/C=C/O[C@@]2(C)Oc3c(C)c(O)c4c(O)c(c(/C=N/N5CCN(C)CC5)c(O)c4c3C2=O)NC(=O)/C(C)=C\C=C\[C@H](C)[C@H](O)[C@@H](C)[C@@H](O)[C@@H](C)[C@H](OC(C)=O)[C@@H]1C` [RIFAMPIN], the MIC in assay [2], in assay [3], in assay [4] and in assay [5] was above 30.4 µM each time.

The values above are taken from ChEMBL document CHEMBL4400559, “Exploiting the furo[2,3-b]pyridine core against multidrug-resistant Mycobacterium tuberculosis” (Bioorg Med Chem Lett, 2019).
